These results are taken from PubChem BioAssay AID844 (SRMLSC, 2007).

For this experiment, the system named is MRP1 cells, doxorubicin viability shift, 10 uM compound. In words: doxorubicin EC50 increase in MRP-1 cells, dose response, cell-based, doxorubicin EC50 shift (AID 844). Particulars: for EC50: measured here: doxorubicin EC50 with compound.

The source made the active and inactive calls. How the calls were made is not given here.

What is called EC50 is the concentration at which the effect is half-maximal. For `Cc1ccc(S(=O)(=O)Nc2nc3ccccc3nc2NCc2ccc3c(c2)OCO3)cc1C`, the fold increase in Dox EC50 was 1.02 (inactive) and the concentration giving a half-maximal response (EC50) came out at 5.49 µM.
As to `N#CC1=C(N)SC(N)=C(C#N)C1c1cccc(O)c1`, the fold increase in Dox EC50 is 1.07 (inactive) and the EC50 was 5.78 µM.
The corresponding values for `CC(C)c1ccc(C(=O)CSc2ncn[nH]2)cc1` are 0.96 (inactive) and 5.17 µM.
In the case of `c1ccc(N2CCN(c3nc(-c4cccs4)nc4ccccc34)CC2)cc1`, the fold increase in Dox EC50 is 0.81 (inactive) and the EC50 amounted to 4.37 µM.
The corresponding values for `Fc1cccc(-c2cc3nc(-c4ccccc4)cc(N4CCC5(CC4)OCCO5)n3n2)c1` are 0.56 (inactive) and 3.04 µM.
For `O=C1c2ccccc2-c2nc3ccccc3n21`, the fold increase in Dox EC50 was 1.09 (inactive) and the EC50 came to 5.87 µM.
The corresponding values for `Cn1c(=O)c2c(nc(CN3CCOCC3)n2CCc2ccccc2)n(C)c1=O` are 0.31 (inactive) and 1.68 µM.
For `COc1ccc(-c2ocnc2C(=O)Nc2ccccc2N2CCCCC2)cc1`, in that order: 0.81 (inactive) and 4.37 µM.
For `CCN(Cc1ccccc1)C(=O)CSc1nc(C)cc(C)c1C#N`, in that order: 0.59 (inactive) and 3.19 µM.
For `Cc1cc(C)n(-c2ccc(C(=O)Nc3cccc(S(=O)(=O)N(C)C)c3)cc2)n1`, the fold increase in Dox EC50 was 0.73 (inactive) and the EC50 was 3.93 µM.
The corresponding values for `COc1ccc(-c2cc3nc(C)cc(N4CC(C)CC(C)C4)n3n2)cc1` (stereo unspecified) are 0.64 (inactive) and 3.45 µM.
For `CCc1nnc(NC(=O)C2COc3ccccc3O2)s1` (stereo unspecified), in that order: 1.1 (inactive) and 5.95 µM.
For `N/C(Cc1cccs1)=N\OC(=O)COc1ccc(Br)cc1`, in that order: 1.01 (inactive) and 5.44 µM.
Regarding `CCNc1sc(C(=O)c2cccs2)c(N)c1-c1nc2ccccc2s1`, the fold increase in Dox EC50 was 0.59 (inactive) and the EC50 stood at 3.17 µM.
The corresponding values for `O=C(NC(=S)Nc1ccccc1N1CCOCC1)c1ccc(-c2cccc(Cl)c2)o1` are 0.41 (inactive) and 2.22 µM.
For the molecule `Cc1cc(Br)ccc1NC(=O)CNC(=O)CN1C(=O)NC2(CCCCCC2)C1=O`, the fold increase in Dox EC50 was 1.34 (inactive) and the EC50 came to 7.25 µM.
The corresponding values for `CCOC(=O)Cc1csc(NC(=S)NC(=O)C(C)(C)C)n1` are 1.2 (inactive) and 6.45 µM.
`Nc1ccc(CC2SC(=O)NC2=O)cc1` (stereo unspecified): the fold increase in Dox EC50 was 1.24 (inactive) and the EC50 came to 6.72 µM.
The corresponding values for `COc1ccc(NC(=O)CC2C(=O)N(c3ccc(Cl)cc3)C(=S)N2NC(=O)c2cccc(F)c2)cc1` (stereo unspecified) are 0.67 (inactive) and 3.59 µM.
As for `O=[N+]([O-])c1ccc(N/N=C/c2ccccc2)c(F)c1`, the fold increase in Dox EC50 was 0.64 (inactive) and the EC50 is 3.44 µM.
For the molecule `CCN(CC)C(=O)C(=O)c1c(-c2ccccc2)[nH]c2ccccc12`, the fold increase in Dox EC50 was 2.22 and the EC50 amounted to 12 µM.
Take `CN(CC(=O)NCCc1ccc(Cl)cc1)S(=O)(=O)c1ccc2c(c1)c(=O)n(C)c(=O)n2C`: the fold increase in Dox EC50 was 0.54 (inactive) and the EC50 amounted to 2.93 µM.
With `COc1cc(/C=N/NC(=O)C23CC4CC(CC(C4)C2)C3)cc(Br)c1O`, the fold increase in Dox EC50 was 0.66 (inactive) and the EC50 is 3.54 µM.
For `Cc1ccc(C(=O)CCC(=O)Nc2ccc(Cl)c(S(=O)(=O)Nc3cccc(Cl)c3)c2)cc1`, in that order: 1.15 (inactive) and 6.21 µM.
The corresponding values for `O=C1Nc2ccccc2CCC1Sc1nnc(-c2ccc(Cl)cc2)s1` (stereo unspecified) are 1.32 (inactive) and 7.13 µM.
For the molecule `O=C(CSc1ccccc1)Nc1nnc(COc2ccc(Cl)cc2)s1`, the fold increase in Dox EC50 was 0.43 (inactive) and the concentration for a half-maximal effect (EC50) amounted to 2.34 µM.
For `O=C(CCc1ccccc1)N/N=C/c1cc(Br)ccc1O`, in that order: 0.12 (inactive) and 0.631 µM.
For `CCc1nnc(NC(=O)c2ccc(-c3ccc(Cl)cc3)o2)s1`, in that order: 1.19 (inactive) and 6.41 µM.
For `CCCCCOc1ccc(CSc2ncn[nH]2)cc1`, in that order: 0.68 (inactive) and 3.69 µM.
Turning to `COC(=O)c1ccc(NC(=O)C(=O)N2CCN(C(=S)Nc3cccc(OC)c3)CC2)cc1`, the fold increase in Dox EC50 is 1.28 (inactive) and the EC50 was 6.93 µM.
Turning to `COc1ccc(CNc2nc3c(c(=O)n(Cc4ccc(Cl)cc4)c(=O)n3C)n2C)cc1`, the fold increase in Dox EC50 was 0.83 (inactive) and the EC50 came to 4.48 µM.
The corresponding values for `CCOC(=O)c1sc(-c2ccc(F)cc2)cc1NC(=O)Nc1ccccc1OC` are 0.83 (inactive) and 4.5 µM.
For `CC1=C(C(=O)Nc2ccccc2C)C(c2ccc(C)o2)N2C(=O)CSC2=N1` (stereo unspecified), in that order: 1.01 (inactive) and 5.43 µM.
As for `Cc1onc(-c2ccccc2)c1C(=O)Nc1nnc(N(C)Cc2ccccc2)s1`, the fold increase in Dox EC50 was 0.64 (inactive) and the EC50 is 3.46 µM.
In the case of `NC(=O)C1(N2CCCCC2)CCN(C(=O)c2cccn3c(=O)c4cc(Cl)ccc4nc23)CC1`, the fold increase in Dox EC50 was 0.7 (inactive) and the EC50 was 3.79 µM.
In the case of `N#C/C(=N/Nc1ccccc1F)C(=N)N1CCOCC1`, the fold increase in Dox EC50 was 0.99 (inactive) and the EC50 was 5.33 µM.
For `Cc1ccc(C(=O)CSc2n[nH]c(-c3ccco3)n2)cc1C`, in that order: 0.74 (inactive) and 3.97 µM.
For the molecule `Cc1onc(-c2ccccc2Cl)c1C(=O)Nc1nnc(-c2ccc(Br)cc2)s1`, the fold increase in Dox EC50 is 0.75 (inactive) and the EC50 is 4.04 µM.
`Cc1cccc(Cc2cnc(NC(=O)CN3C(=O)/C(=C/c4ccccc4)SC3=S)s2)c1`: the fold increase in Dox EC50 was 1.53 and the EC50 was found to be 8.25 µM.
With `COc1ccc(Cl)cc1N1C(=O)C2CCCN2C1c1ccc(F)c(F)c1` (stereo unspecified), the fold increase in Dox EC50 was 0.85 (inactive) and the EC50 is 4.61 µM.
Take `COc1ccc(OC)c(-c2csc(NC(=O)C3c4ccccc4Oc4ccccc43)n2)c1`: the fold increase in Dox EC50 was 0.96 (inactive) and the EC50 is 5.16 µM.
Regarding `CCn1c(CNC(=O)COc2ccc(C(C)C)cc2)nnc1SCC(=O)Nc1ccccc1C(C)C`, the fold increase in Dox EC50 is 1.04 (inactive) and the EC50 was found to be 5.63 µM.
For `N#C/C(=N\Nc1ccccc1)C(=N)N1CCOCC1`, in that order: 1.15 (inactive) and 6.23 µM.
As to `Cc1c(C(=O)Nc2nnc(C(F)(F)F)s2)oc2ccccc12`, the fold increase in Dox EC50 was 2.05 and the EC50 worked out at 11 µM.
Take `Cc1noc(/C=C/N(C)C)c1S(=O)(=O)N1CCCC(C(=O)NC2CCCCC2C)C1` (stereo unspecified): the fold increase in Dox EC50 is 0.92 (inactive) and the EC50 worked out at 4.98 µM.
For `C=CCNC(=O)c1ccccc1NC(=O)c1ccc(Cl)c(S(=O)(=O)Nc2cccc(C)c2C)c1`, in that order: 0.36 (inactive) and 1.96 µM.
Take `CCOc1ccc(NC(=O)CN2C(=O)COc3ccc(Cl)cc32)cc1`: the fold increase in Dox EC50 was 1.33 (inactive) and the EC50 turned out to be 7.19 µM.
The corresponding values for `Cc1ccc(COc2cccc3c2CCN(Cc2ccc(F)cc2)C3=O)cc1` are 1.02 (inactive) and 5.52 µM.
For `Cc1cc(C(=O)N/N=C/c2cc([N+](=O)[O-])cc(C)c2O)n[nH]1`, in that order: 0.53 (inactive) and 2.87 µM.
The corresponding values for `CC(C)CCC1CC(CSC(=N)N)OC1=O` (stereo unspecified) are 0.68 (inactive) and 3.68 µM.
With `O=C1CSC(=NC(=O)c2ccccc2)N1`, the fold increase in Dox EC50 was 0.7 (inactive) and the concentration giving a half-maximal response (EC50) is 3.79 µM.
As to `CCOC(=O)c1cc(-c2ccccc2)sc1NC(=O)C(C)Sc1nnc(N)s1` (stereo unspecified), the fold increase in Dox EC50 was 0.73 (inactive) and the EC50 was 3.92 µM.
The corresponding values for `Cc1ccc(OCc2nnc(SCC(=O)N3c4ccccc4Sc4ccc(Cl)cc43)o2)cc1` are 0.85 (inactive) and 4.57 µM.
For `O=C1[C@@H]2C(Cc3ccc(O)cc3)NC3(C(=O)Nc4ccc(F)cc43)[C@@H]2C(=O)N1c1ccc(F)cc1` (stereo partly specified), the fold increase in Dox EC50 was 1.39 (inactive) and the EC50 is 7.52 µM.
The corresponding values for `Cc1noc(/C=C/N(C)C)c1S(=O)(=O)N1CCCC(C(=O)NCc2ccco2)C1` (stereo unspecified) are 1.04 (inactive) and 5.6 µM.
On to `CC(C)Cc1nnc(NC(=O)CSc2ncn[nH]2)s1`, for which the fold increase in Dox EC50 was 0.9 (inactive) and the EC50 turned out to be 4.87 µM.
For `Clc1ccc(OCc2nnnn2-c2ccccc2)cc1`, the fold increase in Dox EC50 is 0.96 (inactive) and the EC50 was found to be 5.21 µM.
As for `Cc1ccc(/C=C2\SC(=S)N(CCC(=O)NNS(=O)(=O)c3ccc(C)cc3)C2=O)cc1`, the fold increase in Dox EC50 is 0.48 (inactive) and the EC50 turned out to be 2.6 µM.
The corresponding values for `CCC1(C)Cc2c(sc3nnn(Cc4ccccc4Cl)c(=O)c23)CO1` (stereo unspecified) are 0.81 (inactive) and 4.35 µM.
Take `Cn1c(C(=O)NCc2ccccc2)cc2oc3ccccc3c21`: the fold increase in Dox EC50 is 1.46 (inactive) and the EC50 was found to be 7.9 µM.
For `COc1ccc(CCNC(=O)CSCc2ccc(Cl)cc2)cc1OC`, in that order: 0.67 (inactive) and 3.59 µM.
The corresponding values for `Cc1cccc2cc(CN(Cc3ccco3)S(=O)(=O)c3ccc4c(c3)OCCO4)c(=O)[nH]c12` are 0.96 (inactive) and 5.19 µM.
For `COc1cccc(/C=N/NC(=O)C(=O)N2CCCC2)c1O`, in that order: 0.67 (inactive) and 3.6 µM.
